Assays:
[1] = target: T1, Homo sapiens CYP51 (Homo sapiens, UniProt Q16850); assay: surface plasmon resonance; format: binding
T1 construct: gene CYP51A1; recombinant, immobilised on CM5 SPR chip
T1 sequence (Q16850 1-509): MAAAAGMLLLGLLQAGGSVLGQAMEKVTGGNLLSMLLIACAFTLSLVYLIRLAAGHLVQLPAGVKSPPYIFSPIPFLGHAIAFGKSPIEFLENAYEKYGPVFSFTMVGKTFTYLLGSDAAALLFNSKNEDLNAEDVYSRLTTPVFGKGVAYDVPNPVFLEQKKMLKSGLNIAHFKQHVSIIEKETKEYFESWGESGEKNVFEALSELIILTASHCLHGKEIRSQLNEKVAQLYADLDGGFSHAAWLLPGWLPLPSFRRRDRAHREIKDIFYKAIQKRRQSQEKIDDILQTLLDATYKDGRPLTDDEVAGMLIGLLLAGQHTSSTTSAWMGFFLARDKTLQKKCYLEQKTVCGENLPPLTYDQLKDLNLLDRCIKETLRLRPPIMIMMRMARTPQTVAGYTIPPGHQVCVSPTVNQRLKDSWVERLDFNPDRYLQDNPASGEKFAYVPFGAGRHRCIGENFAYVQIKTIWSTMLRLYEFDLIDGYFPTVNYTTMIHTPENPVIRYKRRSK

[2] = target: T2, Mycobacterium tuberculosis CYP51 (Mycobacterium tuberculosis, UniProt P9WPP9); assay: surface plasmon resonance; format: binding
T2 sequence (P9WPP9 whole entry): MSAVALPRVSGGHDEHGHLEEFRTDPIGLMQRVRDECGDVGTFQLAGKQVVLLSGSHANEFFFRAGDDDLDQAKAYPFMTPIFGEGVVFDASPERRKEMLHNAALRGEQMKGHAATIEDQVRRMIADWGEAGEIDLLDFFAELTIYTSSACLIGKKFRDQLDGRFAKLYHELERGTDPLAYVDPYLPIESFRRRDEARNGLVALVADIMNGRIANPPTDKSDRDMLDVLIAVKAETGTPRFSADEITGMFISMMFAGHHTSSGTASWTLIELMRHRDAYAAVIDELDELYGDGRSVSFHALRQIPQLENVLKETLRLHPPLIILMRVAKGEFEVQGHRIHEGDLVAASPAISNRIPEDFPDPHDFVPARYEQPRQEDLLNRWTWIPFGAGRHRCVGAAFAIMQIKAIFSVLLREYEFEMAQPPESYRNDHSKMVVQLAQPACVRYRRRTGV

[3] = target: Mycobacterium tuberculosis CYP142 (Mycobacterium tuberculosis, UniProt P9WPL5); assay: surface plasmon resonance; format: binding
Mycobacterium tuberculosis CYP142, sequence (P9WPL5 whole entry): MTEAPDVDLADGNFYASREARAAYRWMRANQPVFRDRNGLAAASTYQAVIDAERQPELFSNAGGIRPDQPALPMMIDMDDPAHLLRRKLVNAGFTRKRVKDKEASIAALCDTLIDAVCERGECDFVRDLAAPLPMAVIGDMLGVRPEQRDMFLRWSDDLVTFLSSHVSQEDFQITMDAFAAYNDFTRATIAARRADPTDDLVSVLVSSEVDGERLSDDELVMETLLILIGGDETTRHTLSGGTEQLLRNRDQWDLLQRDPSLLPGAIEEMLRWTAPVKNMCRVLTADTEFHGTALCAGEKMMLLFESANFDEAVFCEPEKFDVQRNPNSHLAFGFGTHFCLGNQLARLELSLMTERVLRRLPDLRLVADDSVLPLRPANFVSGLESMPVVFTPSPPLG

[4] = target: Mycobacterium tuberculosis CYP124 (Mycobacterium tuberculosis, UniProt P9WPP3); assay: surface plasmon resonance; format: binding
Mycobacterium tuberculosis CYP124, sequence (P9WPP3 whole entry): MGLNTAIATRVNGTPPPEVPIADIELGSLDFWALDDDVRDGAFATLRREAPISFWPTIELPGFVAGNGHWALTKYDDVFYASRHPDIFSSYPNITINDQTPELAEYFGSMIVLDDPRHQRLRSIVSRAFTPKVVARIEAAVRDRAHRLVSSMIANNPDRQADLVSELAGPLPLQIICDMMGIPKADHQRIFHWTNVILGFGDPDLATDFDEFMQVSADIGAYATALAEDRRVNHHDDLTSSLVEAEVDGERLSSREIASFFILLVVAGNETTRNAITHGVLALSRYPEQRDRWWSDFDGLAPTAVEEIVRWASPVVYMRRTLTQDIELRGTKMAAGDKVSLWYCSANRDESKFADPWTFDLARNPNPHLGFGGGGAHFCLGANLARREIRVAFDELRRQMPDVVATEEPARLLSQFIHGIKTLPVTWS

[5] = target: T3, Mycobacterium tuberculosis CYP126 (Mycobacterium tuberculosis, UniProt P9WPN9); assay: surface plasmon resonance; format: binding
T3 sequence (P9WPN9 whole entry): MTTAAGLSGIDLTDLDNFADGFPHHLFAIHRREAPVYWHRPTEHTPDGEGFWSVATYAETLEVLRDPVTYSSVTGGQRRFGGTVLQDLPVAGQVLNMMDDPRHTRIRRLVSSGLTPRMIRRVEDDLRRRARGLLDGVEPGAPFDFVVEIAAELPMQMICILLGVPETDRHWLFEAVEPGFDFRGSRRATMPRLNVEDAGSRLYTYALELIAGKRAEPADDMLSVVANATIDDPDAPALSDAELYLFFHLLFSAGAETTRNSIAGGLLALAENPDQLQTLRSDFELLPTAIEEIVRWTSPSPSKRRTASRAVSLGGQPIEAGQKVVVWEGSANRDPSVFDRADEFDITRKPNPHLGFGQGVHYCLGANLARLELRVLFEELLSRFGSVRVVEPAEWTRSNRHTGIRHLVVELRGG

[6] = target: T4, Candida glabrata CYP51 (Nakaseomyces glabratus, UniProt P50859); assay: surface plasmon resonance; format: binding
T4 construct: gene ERG11; recombinant, immobilised on CM5 SPR chip
T4 sequence (P50859 whole entry): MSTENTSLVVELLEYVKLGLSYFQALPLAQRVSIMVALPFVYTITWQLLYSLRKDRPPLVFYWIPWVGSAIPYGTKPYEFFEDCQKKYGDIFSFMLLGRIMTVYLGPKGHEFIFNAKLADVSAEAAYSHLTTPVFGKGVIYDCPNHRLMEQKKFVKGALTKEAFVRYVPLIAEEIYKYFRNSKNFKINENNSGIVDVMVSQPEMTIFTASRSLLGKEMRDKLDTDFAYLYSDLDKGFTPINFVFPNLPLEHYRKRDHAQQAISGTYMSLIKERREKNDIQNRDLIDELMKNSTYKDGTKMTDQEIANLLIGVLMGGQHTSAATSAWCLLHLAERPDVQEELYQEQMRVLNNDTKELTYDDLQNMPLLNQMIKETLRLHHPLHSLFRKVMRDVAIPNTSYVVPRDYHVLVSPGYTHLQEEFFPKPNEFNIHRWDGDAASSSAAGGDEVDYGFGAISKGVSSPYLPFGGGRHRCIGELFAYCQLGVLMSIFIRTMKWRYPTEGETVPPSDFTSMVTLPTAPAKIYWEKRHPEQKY

[7] = target: T5, Mycobacterium tuberculosis CYP125 (Mycobacterium tuberculosis, UniProt P9WPP1); assay: surface plasmon resonance; format: binding
T5 sequence (P9WPP1 whole entry): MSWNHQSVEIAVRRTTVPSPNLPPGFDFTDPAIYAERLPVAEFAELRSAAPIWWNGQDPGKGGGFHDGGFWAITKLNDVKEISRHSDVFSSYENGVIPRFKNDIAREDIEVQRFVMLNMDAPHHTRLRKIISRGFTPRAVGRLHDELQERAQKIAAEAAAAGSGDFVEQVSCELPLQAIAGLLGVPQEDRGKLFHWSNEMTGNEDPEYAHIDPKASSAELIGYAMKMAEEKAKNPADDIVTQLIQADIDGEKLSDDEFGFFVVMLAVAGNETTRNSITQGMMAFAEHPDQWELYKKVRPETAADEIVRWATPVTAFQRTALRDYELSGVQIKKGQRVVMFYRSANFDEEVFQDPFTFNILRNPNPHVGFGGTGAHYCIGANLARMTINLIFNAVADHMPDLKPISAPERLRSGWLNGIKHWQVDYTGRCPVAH

[8] = target: T6, Candida albicans CYP51 (Candida albicans, UniProt P10613); assay: surface plasmon resonance; format: binding
T6 construct: gene ERG11; recombinant, immobilised on CM5 SPR chip
T6 sequence (P10613 whole entry): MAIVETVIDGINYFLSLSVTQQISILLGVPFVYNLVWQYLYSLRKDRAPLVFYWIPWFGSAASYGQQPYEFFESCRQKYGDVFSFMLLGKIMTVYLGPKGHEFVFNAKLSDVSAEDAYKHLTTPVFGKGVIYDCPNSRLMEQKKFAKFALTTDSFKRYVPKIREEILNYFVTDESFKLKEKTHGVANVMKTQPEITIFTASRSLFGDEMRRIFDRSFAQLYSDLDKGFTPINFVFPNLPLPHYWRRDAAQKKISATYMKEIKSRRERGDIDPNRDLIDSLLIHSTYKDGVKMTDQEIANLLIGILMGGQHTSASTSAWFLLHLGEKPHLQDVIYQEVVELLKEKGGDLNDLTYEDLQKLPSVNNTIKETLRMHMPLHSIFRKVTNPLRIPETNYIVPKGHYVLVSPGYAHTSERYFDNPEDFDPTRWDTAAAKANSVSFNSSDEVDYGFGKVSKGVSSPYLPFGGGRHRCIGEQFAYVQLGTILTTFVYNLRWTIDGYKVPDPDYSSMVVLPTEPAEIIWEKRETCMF

[9] = target: T2, Mycobacterium tuberculosis CYP51; assay: biochemical; design: SPR (Biacore, CM5 chip, immobilised CYP), two-state reaction model, global fit KD
Experimental: (§1) Cytochrome P450 and steroid dehydrogenases are pharmaceutically significant drug targets. However, for most of these targets, there is no effective, selective and safe regulator. In this regard, many laboratories and pharmaceutical companies around the world are working on producing selective modulators of cytochrome P450 and human steroid dehydrogenase. […] Injection of a solution of ligands (studied CYPs) in immobilization buffer (10 mM sodium acetate, pH 4.5 in the case of CYP51 Candida albicans and Candida glabrata; 10 mM sodium acetate, pH 5.0 in the case of all other CYPs) was carried out for 5 min at flow rate 5 µL/min. After this, the chip was incubated for 1 hour in a docked state in the “Stand By” device mode at a measuring cell temperature of 25°C, which led to the hydrolysis of unreacted activated dextran groups. Table S4. The amount of the ligand immobilized on the chip. MT - Mycobacterium tuberculosis, human - Homo sapiens, Calb - Candida albicans, Cglab - Candida glabrata Ligands The amount of the ligand immobilized, RU CYP51_MT 5499 CYP124_MT 3315 CYP125_MT 5730 CYP126_MT 4590 CYP142_MT 2445 CYP51_human 8286 CYP51_Calb 2603 CYP51_Cglab 4888

[10] = target: T5, Mycobacterium tuberculosis CYP125; assay: biochemical; design: SPR (Biacore, CM5 chip, immobilised CYP), two-state reaction model, global fit KD
Experimental: as §1

[11] = target: T3, Mycobacterium tuberculosis CYP126; assay: biochemical; design: SPR (Biacore, CM5 chip, immobilised CYP), two-state reaction model, global fit KD
Experimental: as §1

[12] = target: T4, Candida glabrata CYP51; assay: biochemical; design: SPR (Biacore, CM5 chip, immobilised CYP), two-state reaction model, global fit KD; conditions: SPR, two-state model; read-out: KD (мкM)
Experimental: as §1

Structure (SMILES): CCCc1cc(=O)c2c(O)c3c(O)c(-c4c(O)cc(O)c5c(O)c6c(=O)cc(CCC)oc6cc45)c(O)cc3cc2o1 [compound 1, 5,5′,6,6′,8,8′-hexahydroxy-2,2′-dipropyl-4H,4′H-[7,9′-bibenzo[g]chromene]-4,4′-dione]
- Kd [1]: > 10 µM
- Kd [2]: > 10 µM
- Kd [3]: > 10 µM
- Kd [4]: > 10 µM
- Kd [5]: > 10 µM
- Kd [6]: > 10 µM
- Kd [7]: > 10 µM
- Kd [8]: > 10 µM
- Kd [9]: 67.3 µM
- Kd [10]: 55.3 µM
- Kd [11]: 60.5 µM
- Kd [12]: 93.9 µM
